This passage reports IC50 and melting point results from patent US8349824B2, “Triazolopyridine compounds” (Hoffmann-La Roche Inc., priority 2010, dated 2013).

Data set [1] has as its target T1, human PDE10A full length (Homo sapiens, UniProt Q9Y233).
T1 construct: purchased Enzo Life Science, Lausen, Switzerland SE-534
Nature of the data set: PDE10A Scintillation Proximity Assay (SPA), human PDE10A full length assay. Particulars: 50 nM cGMP + 50 nM [3H]-cGMP, 20 minutes at room temperature, read-out: PDE10A inhibition IC50. The class given is biochemical. In short, it runs like this: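 IC50 values come from radioactive counts across a range of inhibitor concentrations, using YSi-SPA beads in zinc sulphate as stop reagent. Full-length enzyme hydrolysed 50 nM cGMP with 50 nM [3H]-cGMP for 20 min at room temperature in pH 7.5 HEPES buffer containing 10 mM MgCl2 and 0.05 mg/ml BSA.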

T1 sequence (Q9Y233 1-779 isoform Q9Y233-1): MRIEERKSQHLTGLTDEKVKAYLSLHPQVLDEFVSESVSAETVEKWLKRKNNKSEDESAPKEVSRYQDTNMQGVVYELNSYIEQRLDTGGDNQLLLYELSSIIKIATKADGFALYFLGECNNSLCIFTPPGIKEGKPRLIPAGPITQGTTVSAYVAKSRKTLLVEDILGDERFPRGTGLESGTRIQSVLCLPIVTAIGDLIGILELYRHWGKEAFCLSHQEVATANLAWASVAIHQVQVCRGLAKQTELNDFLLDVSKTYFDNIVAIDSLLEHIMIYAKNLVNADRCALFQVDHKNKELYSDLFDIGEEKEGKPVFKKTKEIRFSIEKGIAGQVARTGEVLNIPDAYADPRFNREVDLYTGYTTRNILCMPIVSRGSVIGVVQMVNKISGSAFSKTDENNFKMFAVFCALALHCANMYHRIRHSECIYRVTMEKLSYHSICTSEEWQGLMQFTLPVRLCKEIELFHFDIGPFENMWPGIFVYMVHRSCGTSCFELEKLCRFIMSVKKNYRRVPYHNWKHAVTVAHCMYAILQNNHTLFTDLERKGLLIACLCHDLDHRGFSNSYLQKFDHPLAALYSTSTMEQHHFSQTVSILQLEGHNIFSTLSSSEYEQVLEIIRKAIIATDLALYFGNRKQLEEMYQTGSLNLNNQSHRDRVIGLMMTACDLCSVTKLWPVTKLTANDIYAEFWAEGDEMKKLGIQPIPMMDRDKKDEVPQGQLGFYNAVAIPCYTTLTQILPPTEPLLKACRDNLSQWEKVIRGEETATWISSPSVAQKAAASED

As for `CN(C)c1nc2cc(NC(=O)c3c(C(=O)N4CCCC4)cnn3C)ccn2n1` [Example 37, N-(2-(dimethylamino)-[1,2,4]triazolo[1,5-a]pyridin-7-yl)-1-methyl-4-(pyrrolidine-1-carbonyl)-1H-pyrazole-5-carboxamide], the melting point lay in the range of 199 to 201 °C. Further, the half-maximal inhibitory concentration (IC50) in data set [1] came out at 4.46 nM.

The compound `CN(C)c1nc2cc(NC(=O)c3c(C(=O)N4CC(F)C4)cnn3C)ccn2n1` [Example 38, N-(2-(dimethylamino)-[1,2,4]triazolo[1,5-a]pyridin-7-yl)-4-(3-fluoroazetidine-1-carbonyl)-1-methyl-1H-pyrazole-5-carboxamide] returned a melting point of 243 to 244 °C. Further, in data set [1], the half-inhibitory concentration (IC50) worked out at 19.6 nM.

On to `CCN(CC)C(=O)c1cnn(C)c1C(=O)Nc1ccn2nc(N3CCOCC3)nc2c1` [Example 39, N4,N4-diethyl-1-methyl-N5-(2-morpholino-[1,2,4]triazolo[1,5-a]pyridin-7-yl)-1H-pyrazole-4,5-dicarboxamide], for which the melting point lay in the range of 165 to 167 °C. Besides, the concentration for half-maximal inhibition (IC50) in data set [1] was determined as 22.4 nM.

`CN(C)C(=O)c1cnn(C)c1C(=O)Nc1ccn2nc(N3CCOCC3)nc2c1` [Example 40, N4,N4,1-trimethyl-N5-(2-morpholino-[1,2,4]triazolo[1,5-a]pyridin-7-yl)-1H-pyrazole-4,5-dicarboxamide] showed a melting point of 237 to 240 °C. Moreover, the IC50 in data set [1] was determined as 7.14 nM.

Consider `CCN(C)C(=O)c1cnn(C)c1C(=O)Nc1ccn2nc(N3CCOCC3)nc2c1` [Example 41, N4-ethyl-N4,1-dimethyl-N5-(2-morpholino-[1,2,4]triazolo[1,5-a]pyridin-7-yl)-1H-pyrazole-4,5-dicarboxamide], for which the melting point lay within 201 to 203 °C. Moreover, the IC50 in data set [1] was 6.68 nM.

Compound `Cn1ncc(C(=O)N2CCC2)c1C(=O)Nc1ccn2nc(-c3cccnc3)nc2c1` [Example 44, 4-(Azetidine-1-carbonyl)-1-methyl-N-(2-(pyridin-3-yl)-[1,2,4]triazolo[1,5-a]pyridin-7-yl)-1H-pyrazole-5-carboxamide] returned a melting point of 253 to 254 °C. In addition, in data set [1], the IC50 was determined as 5.79 nM.

`Cn1ncc(C(=O)N2CCOCC2)c1C(=O)Nc1ccn2nc(-c3cccnc3)nc2c1` [Example 45, 1-Methyl-4-(morpholine-4-carbonyl)-N-(2-(pyridin-3-yl)-[1,2,4]triazolo[1,5-a]pyridin-7-yl)-1H-pyrazole-5-carboxamide] returned a melting point of 218 to 220 °C. Also, the IC50 in data set [1] came out at 4.29 nM.

`Cn1ncc(C(=O)N2CCCC2)c1C(=O)Nc1ccn2nc(-c3cccnc3)nc2c1` [Example 46, 1-Methyl-N-(2-(pyridin-3-yl)-[1,2,4]triazolo[1,5-a]pyridin-7-yl)-4-(pyrrolidine-1-carbonyl)-1H-pyrazole-5-carboxamide] yielded a melting point of 226 to 228 °C. Besides, the IC50 in data set [1] worked out at 1.17 nM.

The compound `Cn1ncc(C(=O)N2CC(F)C2)c1C(=O)Nc1ccn2nc(-c3cccnc3)nc2c1` [Example 47, 4-(3-Fluoroazetidine-1-carbonyl)-1-methyl-N-(2-(pyridin-3-yl)-[1,2,4]triazolo[1,5-a]pyridin-7-yl)-1H-pyrazole-5-carboxamide] displayed a melting point of 247 to 249 °C. Besides, in data set [1], the 50% inhibitory concentration (IC50) turned out to be 1.24 nM.

Compound `CN(C(=O)c1cnn(C)c1C(=O)Nc1ccn2nc(-c3ccccc3)nc2c1)C1CC1` [Example 48, 2-Methyl-2H-pyrazole-3,4-dicarboxylic acid 4-(cyclopropyl-methyl-amide)3-[(2-phenyl-[1,2,4]triazolo[1,5-a]pyridin-7-yl)-amide]] gave a melting point of 156 to 157 °C. In data set [1], the IC50 stood at 0.98 nM.

On to `CN(CC(F)(F)F)C(=O)c1cnn(C)c1C(=O)Nc1ccn2nc(-c3ccccc3)nc2c1` [Example 49, 2-Methyl-2H-pyrazole-3,4-dicarboxylic acid 4-[methyl-(2,2,2-trifluoro-ethyl)-amide]3-[(2-phenyl-[1,2,4]triazolo[1,5-a]pyridin-7-yl)-amide]], for which the melting point is greater than 250 °C. For the same compound, the IC50 in data set [1] was found to be 0.84 nM.

`CC(C)c1nc2cc(NC(=O)c3c(C(=O)N4CCC4)cnn3C)ccn2n1` [Example 50, 4-(Azetidine-1-carbonyl)-2-methyl-2H-pyrazole-3-carboxylic acid (2-isopropyl-[1,2,4]triazolo[1,5-a]pyridin-7-yl)-amide] showed a melting point of 226 to 227 °C. The IC50 in data set [1] was determined as 47.3 nM.

Regarding `CC(C)c1nc2cc(NC(=O)c3c(C(=O)N4CC(F)C4)cnn3C)ccn2n1` [Example 51, 4-(3-Fluoro-azetidine-1-carbonyl)-2-methyl-2H-pyrazole-3-carboxylic acid (2-isopropyl-[1,2,4]triazolo[1,5-a]pyridin-7-yl)-amide], the melting point lay within 226 to 227 °C. Moreover, the IC50 in data set [1] turned out to be 42 nM.

Consider `CN(C(=O)c1cnn(C)c1C(=O)Nc1ccn2nc(N3CCOCC3)nc2c1)C1CCCC1` [Example 52, N4-cyclopentyl-N4,1-dimethyl-N5-(2-morpholino-[1,2,4]triazolo[1,5-a]pyridin-7-yl)-1H-pyrazole-4,5-dicarboxamide], for which the melting point was 222 to 224 °C. For the same compound, the IC50 in data set [1] came out at 57.4 nM.

Turning to `CN(CCF)C(=O)c1cnn(C)c1C(=O)Nc1ccn2nc(-c3cccnc3)nc2c1` [Example 56, 2-Methyl-2H-pyrazole-3,4-dicarboxylic acid 4-[(2-fluoro-ethyl)-methyl-amide]3-[(2-pyridin-3-yl-[1,2,4]triazolo[1,5-a]pyridin-7-yl)-amide]], the melting point lay in the range of 200 to 208 °C. The half-inhibitory concentration (IC50) in data set [1] worked out at 3.69 nM.

For `CCN(C)c1nc2cc(NC(=O)c3c(C(=O)N4CCC4)cnn3C)ccn2n1` [Example 58, 4-(Azetidine-1-carbonyl)-2-methyl-2H-pyrazole-3-carboxylic acid [2-(ethyl-methyl-amino)-[1,2,4]triazolo[1,5-a]pyridin-7-yl]-amide], the melting point lay within 229 to 232 °C. For the same compound, the IC50 in data set [1] was 7.03 nM.

For `CCN(C)c1nc2cc(NC(=O)c3c(C(=O)N4CCOCC4)cnn3C)ccn2n1` [Example 59, 2-Methyl-4-(morpholine-4-carbonyl)-2H-pyrazole-3-carboxylic acid [2-(ethyl-methyl-amino)-[1,2,4]triazolo[1,5-a]pyridin-7-yl]-amide], the melting point was in the range of 167 to 169 °C. The IC50 in data set [1] came to 7.97 nM.

For the compound `Cn1ncc(C(=O)N2CCC2)c1C(=O)Nc1ccn2nc(N3CCCC3)nc2c1` [Example 60, 4-(Azetidine-1-carbonyl)-2-methyl-2H-pyrazole-3-carboxylic acid (2-pyrrolidin-1-yl-[1,2,4]triazolo[1,5-a]pyridin-7-yl)-amide], the melting point was greater than 250 °C. Besides, in data set [1], the IC50 turned out to be 3.16 nM.

The compound `Cn1ncc(C(=O)N2CCOCC2)c1C(=O)Nc1ccn2nc(N3CCCC3)nc2c1` [Example 61, 2-Methyl-4-(morpholine-4-carbonyl)-2H-pyrazole-3-carboxylic acid (2-pyrrolidin-1-yl-[1,2,4]triazolo[1,5-a]pyridin-7-yl)-amide] registered a melting point of 194 to 197 °C. For the same compound, the IC50 in data set [1] stood at 0.94 nM.

`CCNC(=O)c1nc2cc(NC(=O)c3c(C(=O)N4CCC4)cnn3C)ccn2n1` [Example 63, 7-{[4-(Azetidine-1-carbonyl)-2-methyl-2H-pyrazole-3-carbonyl]-amino}-[1,2,4]triazolo[1,5-a]pyridine-2-carboxylic acid ethylamide]: the melting point lay in the range of 217 to 229 °C. In addition, the IC50 in data set [1] was determined as 93.7 nM.
